The assay has as its system human mammary carcinoma MX-1 cells. The experiment in a line: In vitro drug combination (median-effect / combination index, DRI) against MX-1 cell growth (Tables 5, 5A). It counts as cell-based. Here is the method:
The data in Tables 2X, 3A-E, 4, 5, and 6 were obtained using the cell counting kit-8 (CCK-8) tetrazolium assay in a 96-well microplate. Five to seven concentrations of each compound in triplicate were used, and the IC50 values were determined by CompuSyn software automation (Chou T C. and Martin N. ComboSyn, Inc., 2006) based on the median-effect equation and plot (Chou T C. J. Theor. Biol. 59:235-276, 1976; Chou T C. Pharmacol. Rev. 58: 621-681, 2006). […] The r value defines the correlation coefficient of the median-effect plot which signifies the conformity to the mass-action law principle (Chou T C. J. Theor. Biol. 59:235-276, 1976; Chou T C. Pharmacol. Rev. 58:621-681, 2006). These parameters were determined by CompuSyn simulation (available at http://www.combosyn.com).
Efficacy of panaxytriol in combination with Fludelone (an illustrative tubulin-binding anticancer agent) was measured according to procedures described in more detail by Chou et al. (1984) Adv. Enz. Regul., 22:27-55, Chou et al. (1994) Nat'l Cancer Inst., 86:1517-1524, and Chou (2006) Pharmacological Reviews, […]:621-681. Software packages used for data analyses were CalcuSyn for Windows (Chou and Hayball., Multiple-drug dose effect analyzer and manual, Biosoft, Cambridge Place, Cambridge, U.K (1996)) and CompuSyn for Drug Combinations (Chou and Martin, Software for determination of synergism and antagonism and determination of IC50, ED50 and LD50, ComboSyn Inc., Paramus, N.J. (2005)). The entire contents of each of the above references are incorporated by reference in their entireties. […] DRI quantitates synergy as how many fold less of a dose is required to obtain a given level of effect for a combination of drugs versus the same effect for an individual component of the combination.

The mark [1] stands for this setting: Table 5, fold dose reduction allowed in the Panaxytriol + Fludelone combination.

Usually IC50 stands for the concentration that inhibits the measured activity by half.

Regarding `C=C[C@@H](O)C#CC#CC[C@@H](O)[C@H](O)CCCCCCC` [panaxytriol], for the setting “Homo sapiens, MX1, 72 h, read-out: Dose-effect parameter Dm (IC50)”, the IC50 amounted to 3.19 µM. In addition, under setting [1], the “Dose-Reduction Index (DRI) at IC50” value was found to be 2.66, the “Dose-Reduction Index (DRI) at IC75” value is 2.12, the “Dose-Reduction Index (DRI) at IC90” value is listed as 1.70 and the “Dose-Reduction Index (DRI) at IC95” value was found to be 1.46. For the same compound, the “dose-reduction index (DRI)” value (panaxytriol + Fludelone combination, MX-1 cells) is 1.46-2.7.

The values above are taken from patent US8859615B2, “Compounds, compositions and methods for reducing toxicity and treating or preventing diseases” (priority 2008, dated 2014).
